{"source": "patent US11352399B2", "about": "“Peptide for toll-like receptor (TLR) inhibition and pharmaceutical composition comprising same” (GENESEN CO., LTD., priority 2017, dated 2022)", "key": {"hTLR4 (human TLR4)": {"molecular_target": "T1, hTLR4 (human TLR4) (Homo sapiens, UniProt O00206)", "T1 construct": "host or cells: HEK-Blue-hTLR4 (HEK293-derived reporter line)", "T1 sequence (O00206 24-839)": "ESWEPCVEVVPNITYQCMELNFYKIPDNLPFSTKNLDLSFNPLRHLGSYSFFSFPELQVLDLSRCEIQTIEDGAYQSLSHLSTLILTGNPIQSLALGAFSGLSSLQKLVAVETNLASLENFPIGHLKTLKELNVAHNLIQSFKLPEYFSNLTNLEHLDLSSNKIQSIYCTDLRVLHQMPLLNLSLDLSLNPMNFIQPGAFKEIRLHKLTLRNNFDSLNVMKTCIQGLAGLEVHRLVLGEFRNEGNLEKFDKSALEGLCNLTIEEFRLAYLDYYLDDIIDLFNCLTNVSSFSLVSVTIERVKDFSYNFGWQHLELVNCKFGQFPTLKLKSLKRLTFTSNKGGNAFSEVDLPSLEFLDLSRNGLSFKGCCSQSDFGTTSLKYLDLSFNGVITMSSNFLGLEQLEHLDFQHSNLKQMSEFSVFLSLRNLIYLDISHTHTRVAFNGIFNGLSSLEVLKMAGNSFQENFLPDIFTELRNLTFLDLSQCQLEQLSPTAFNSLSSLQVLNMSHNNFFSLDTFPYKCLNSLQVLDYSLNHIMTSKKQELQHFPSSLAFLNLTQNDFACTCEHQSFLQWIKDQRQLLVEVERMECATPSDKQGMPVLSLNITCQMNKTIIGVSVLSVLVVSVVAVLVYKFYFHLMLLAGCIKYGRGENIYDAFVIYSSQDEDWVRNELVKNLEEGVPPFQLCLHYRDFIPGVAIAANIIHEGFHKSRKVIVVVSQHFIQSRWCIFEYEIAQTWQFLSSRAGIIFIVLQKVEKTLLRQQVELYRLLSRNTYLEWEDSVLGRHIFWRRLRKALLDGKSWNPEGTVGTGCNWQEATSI", "T1 sequence (Q9Y6Y9 17-160 partner limits assumed)": "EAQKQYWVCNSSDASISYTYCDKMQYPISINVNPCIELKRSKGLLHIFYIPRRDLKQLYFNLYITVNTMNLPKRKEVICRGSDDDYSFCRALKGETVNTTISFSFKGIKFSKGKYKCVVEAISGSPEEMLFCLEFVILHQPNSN", "test": "SEAP activity (NF-κB activity) in HEK-Blue-hTLR4 cells", "type": "cell-based", "description": "HEK-Blue™-hTLR4 cells were dispensed into 24-well plates (BD Biosciences) to a cell number of 2×10^5 cells/well, and incubation was performed overnight. The next day, the culture was removed and medium replacement was performed. Then, a portion (200 μl) of the culture was transferred to a microcentrifuge tube and heated at 65° C. for 10 minutes using a heating block (FINEPCR. Co., Seoul, Korea). Subsequently, the culture was transferred to 96-well plates (BD Biosciences), and absorbance was measured at 405 nm using the HEK-Blue™ detection kit (InvivoGen) and a microplate reader spectrophotometer (Molecular Devices Inc., Silicon Valley, Calif., USA), to analyze an expression level of SEAP (secreted alkaline phosphatase).\nTo this end, the inducible secreted embryonic alkaline phosphatase (SEAP) reporter gene was placed under the control of an IL-12 p40 minimal promoter (IL-12 p40 is produced by activation of NF-κB and AP-1 (activator protein 1) after stimulation of TLR4) which contains sites where DNAs of NF-κB and AP-1 bind. Then, HEK-Blue™-hTLR4 cells were treated with varying concentrations of TIP or TIP (TIP W/O CPP), to which CPP is not linked, at 12.5, 25, 50 μM, and then an average value of SEAP activity was calculated to measure TLR4 activity. The results are illustrated in FIGS. 1(a) and 1(b).\nThe results are illustrated in FIGS. 12(a) and 12(b)."}, "[1]": {"tested_on": "mBMDM cells (Poly(I:C)-induced)", "test": "Poly(I:C)-induced IFN-β generation in mBMDM cells", "type": "cell-based, mouse"}, "TLR9": {"molecular_target": "T2, TLR9 (Mus musculus, UniProt Q9EQU3)", "T2 construct": "host or cells: RAW 264.7", "T2 sequence (Q9EQU3 26-1032)": "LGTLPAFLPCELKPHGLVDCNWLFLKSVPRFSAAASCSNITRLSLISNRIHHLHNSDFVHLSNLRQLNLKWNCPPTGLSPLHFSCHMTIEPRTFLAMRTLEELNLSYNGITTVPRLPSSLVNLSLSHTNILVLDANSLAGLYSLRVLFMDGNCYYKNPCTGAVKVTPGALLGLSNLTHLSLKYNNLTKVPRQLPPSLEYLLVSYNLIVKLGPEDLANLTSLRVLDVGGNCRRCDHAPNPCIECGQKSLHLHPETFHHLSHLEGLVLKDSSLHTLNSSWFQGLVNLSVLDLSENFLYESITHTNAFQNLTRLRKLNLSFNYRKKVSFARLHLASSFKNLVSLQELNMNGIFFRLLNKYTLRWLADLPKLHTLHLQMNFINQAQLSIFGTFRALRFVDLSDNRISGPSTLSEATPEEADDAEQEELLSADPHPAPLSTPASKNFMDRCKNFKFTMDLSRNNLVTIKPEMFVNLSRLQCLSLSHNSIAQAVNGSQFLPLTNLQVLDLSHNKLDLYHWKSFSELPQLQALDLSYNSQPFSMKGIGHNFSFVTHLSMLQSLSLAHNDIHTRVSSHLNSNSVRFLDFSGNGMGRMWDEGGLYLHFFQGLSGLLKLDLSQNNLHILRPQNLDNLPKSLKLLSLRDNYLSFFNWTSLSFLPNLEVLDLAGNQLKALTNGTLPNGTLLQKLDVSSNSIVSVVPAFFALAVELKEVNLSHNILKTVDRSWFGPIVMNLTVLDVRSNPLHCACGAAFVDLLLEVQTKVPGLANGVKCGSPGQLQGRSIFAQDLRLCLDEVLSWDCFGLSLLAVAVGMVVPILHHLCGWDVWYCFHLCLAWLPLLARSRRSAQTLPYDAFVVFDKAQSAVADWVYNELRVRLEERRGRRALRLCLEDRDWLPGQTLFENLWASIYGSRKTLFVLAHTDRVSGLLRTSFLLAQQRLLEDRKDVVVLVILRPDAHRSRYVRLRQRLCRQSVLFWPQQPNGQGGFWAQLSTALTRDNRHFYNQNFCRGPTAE", "test": "TNF-α secretion in RAW 264.7 cells with CpG-ODN", "type": "cell-based"}, "[2]": {"tested_on": "collagen-induced arthritis (CIA) model DBA/1J mice", "test": "Collagen-induced arthritis (CIA) model", "type": "in vivo, mouse", "description": "Specifically, chicken collagen type II (Sigma-Aldrich Co. LLC) and complete Freund's adjuvant (Sigma-Aldrich Co. LLC.) were mixed at 1:1 and emulsified. Then, 100 μg of the emulsified collagen solution was injected intradermally into the mouse tail to induce primary immunization, which was designated day 0. After 14 days of the primary immunization, the emulsified collagen solution was injected again intradermally into the mouse tail to induce secondary immunization (boosting).\nThese plans included a total of seven experimental groups (n=8) and named as follows: (1) Non-treated, normal group (normal); (2) control (vehicle-treated) (CIA, n=8); (3) 2.5 nmol/g TIP1-treated group (CIA-TIP1 (2.5 nmol/g)); (4) 5 nmol/g TIP1-treated group (CIA-TIP1 (5 nmol/g)); (5) 10 nmol/g TIP1-treated group (CIA-TIP1 (10 nmol/g)); (6) 5 μg/g prednisolone (conventional therapeutic agent for arthritis)-treated group (CIA-prednisolone (5 μg/g)); (7) 10 nmol/g TIP1-treated group in post-arthritis phase (PAP) (PAP CIA-TIP1 (10 nmol/g)). TIP1 and prednisolone were dissolved in saline and injected intraperitoneally. Then, changes in behavioral development and disorders such as apparent symptoms and body weight, mouse squeaking, foot volume, and arthritis index were analyzed. The results are illustrated in FIGS. 19(a) and 19(b) and 20(a)-20(d).\nThen, the mice were sacrificed on day 45 and joint tissues were sampled. Subsequently, 3D images and bone mineral density (BMD) of the joint tissues were analyzed through micro-computed tomography (Micro-CT). […] The results are illustrated in FIGS. 21 and 22."}, "[3]": {"settings": "TIP1 2.5, 5, 10 nmol/g i.p. daily, compared with prednisolone 5 mg/kg"}}, "data": [{"sequence": "RQIKIWFQNRRMKWKKSHCRVLLI (TIP1)", "values": [{"measurement": "LPS-induced SEAP activity", "setting": "hTLR4 (human TLR4); TIP 12.5, 25, 50 μM, then LPS, FIG. 1(a)", "result": "decreased LPS-induced SEAP activity in a concentration-dependent manner"}, {"measurement": "NF-κB activity (SEAP activity)", "setting": "hTLR4 (human TLR4); together with LPS, FIG. 12(a)", "result": "highest inhibitory effect on NF-κB activity"}, {"measurement": "Poly(I:C)-induced generation of IFN-β", "setting": "[1]", "result": "inhibited"}, {"measurement": "secretion level of TNF-α", "setting": "TLR9", "result": "decreased"}, {"measurement": "arthritis index increase", "setting": "[2]; [3]", "result": "inhibited"}, {"measurement": "body weight loss caused by induction of arthritis", "setting": "[2]; [3]", "result": "inhibited"}, {"measurement": "foot volume", "setting": "[2]; [3]", "result": "inhibited"}, {"measurement": "squeaking", "setting": "[2]; [3]", "result": "inhibited"}, {"measurement": "severely swollen foot (visual observation)", "setting": "[2]; TIP1 i.p., FIG. 19(b)", "result": "alleviated similarly to the normal mice"}, {"measurement": "histopathological modification in cartilage, subchondral bone, femur, tibia and meniscus (H&E)", "setting": "[2]; knee joint, once daily for 30 days", "result": "decreased"}, {"measurement": "bones damaged by the CIA model (Micro-CT 3D image, bone mineral density)", "setting": "[2]; once daily for 30 days, sacrificed day 45", "result": "alleviated similarly to the normal mice"}]}]}
